Converted amounts (≈) assume the structure as drawn. Where two headings read alike, the source gives them in different places.
Columns and labels:
Assay type in all cases: cell-based
S. aureus ATCC 6538 [1] = experiment: MBC by Miles-Misra drop-plate method, S. aureus; conditions: Staphylococcus aureus, read-out: S. aureus ATCC 6538 MBC
Method: (§1) Antibacterial susceptibility testing was performed in triplicate (biological) by measuring minimum inhibitory concentrations (MICs) by broth microdilution in 96-well flat bottom microtiter plates (ThermoFisher Scientific, New Zealand). S. uberis ATCC 19436, S. aureus ATCC 6538, or E. coli ATCC 10596 cells grown overnight were diluted to an OD600 of approximately 0.025, so that the final concentration of cells in the MIC assay was approximately 5×10^5 cfu/mL in media as follows: S. uberis; Todd Hewitt Broth (THB), S. aureus; Tryptic Soy Broth (TSB) and Cation Adjusted Muller Hinton Broth (CAMHB), and E. coli; Lysogeny Borth (LB) and CAMHB, before being dispensed into microtiter wells. As required additional sterile Zinc Sulphate (Heptahydrate) was supplemented into the media, so the final concentration was 50 μM. Test compounds were added to starting wells and two-fold serial dilutions were undertaken to generate a range of inhibitor concentrations at a final volume of 200 μl. Media and test compound-free (untreated) controls were included in each microtiter plate in triplicate. After 24 h incubation at 37° C. and 200 rpm, the OD600 of wells were read using a Varioskan Flash plate reader (ThermoFisher Scientific, New Zealand). The MIC was reported as the lowest concentration of the test compound for which no growth occurred, as determined by OD600 readings. The minimum bactericidal concentration (MBC) was determined using the Miles-Misra drop-plate method to measure the viability of cells in response to test compound challenge.

E. coli ATCC 10536 = experiment: MBC by Miles-Misra drop-plate method, E. coli; conditions: Escherichia coli, read-out: E. coli ATCC 10536 MBC
Method: as §1

S. uberis ATCC 19436 [2] = experiment: MBC by Miles-Misra drop-plate method, S. uberis; conditions: Streptococcus uberis, read-out: S. uberis ATCC 19436 MBC
Method: as §1

S. uberis ATCC 19436 [3] = experiment: MIC by broth microdilution, S. uberis; conditions: Streptococcus uberis, read-out: S. uberis ATCC 19436 MIC
Outline: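 This broth microdilution assay used S. uberis ATCC 19436 in Todd Hewitt Broth, with zinc sulphate heptahydrate added where required to a final 50 μM. Inhibitor concentration ranges came from two-fold serial dilutions in 96-well flat bottom plates at 200 μl. Approximately 5×10^5 cfu/mL cells were incubated for 24 h at 37° C. and 200 rpm. Wells were then read at OD600 on a Varioskan Flash reader.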

S. aureus ATCC 6538 [4] = experiment: MIC by broth microdilution, S. aureus; conditions: Staphylococcus aureus, read-out: S. aureus ATCC 6538 MIC
Outline: (§2)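 Overnight cultures diluted to ~5×10^5 cfu/mL final; S. aureus in TSB and CAMHB, E. coli in LB and CAMHB, zinc sulphate to 50 μM final as required; two-fold serial dilutions. MIC = lowest concentration with no growth by OD600 after 24 h, 37° C, 200 rpm. MBC by Miles-Misra drop-plate viability count.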

E. coli ATCC 10596 = experiment: MIC by broth microdilution, E. coli; conditions: Escherichia coli, read-out: E. coli ATCC 10536 MIC
Outline: as §2

[5] = ATCC 10536 / ATCC 10596, No Zinc
[6] = ATCC 10536 / ATCC 10596, Zinc (50 μM)

MIC (S. uberis ATCC 19436 [3]; ATCC19436, No Zinc) | MIC (S. uberis ATCC 19436 [3]; ATCC19436, Zinc (50 μM)) | MIC (S. aureus ATCC 6538 [4]; ATCC6538, No Zinc) | MIC (S. aureus ATCC 6538 [4]; ATCC6538, Zinc (50 μM)) | MIC (E. coli ATCC 10596; [5]) | MIC (E. coli ATCC 10596; [6]) | SMILES | MBC (S. aureus ATCC 6538 [1]; ATCC6538, No Zinc) | MBC (S. aureus ATCC 6538 [1]; ATCC6538, Zinc (50 μM)) | MBC (E. coli ATCC 10536; ATCC10536, No Zinc) | MBC (E. coli ATCC 10536; ATCC10536, Zinc (50 μM)) | MBC (S. uberis ATCC 19436 [2]; ATCC19436, No Zinc) | MBC (S. uberis ATCC 19436 [2]; ATCC19436, Zinc (50 μM))
32 µg/mL (≈ 62.9 µM) | 2 µg/mL (≈ 3.93 µM) | 64 µg/mL (≈ 126 µM) | 64 µg/mL (≈ 126 µM) | > 256 µg/mL | > 256 µg/mL | O=S(=O)(Nc1cccc2ccc(CNCCCN3CCOCC3)nc12)c1ccc(C(F)(F)F)cc1 [ZDR116, N-(2-(((3-Morpholinopropyl)amino)methyl)quinolin-8-yl)-4-(trifluoromethyl)benzenesulfonamide] | 128 µg/mL (≈ 252 µM) | > 256 µg/mL | > 256 µg/mL | > 256 µg/mL | 64 µg/mL (≈ 126 µM) | 2 µg/mL (≈ 3.93 µM)
> 256 µg/mL | 1 µg/mL (≈ 2.54 µM) | 16 µg/mL (≈ 40.6 µM) | 16 µg/mL (≈ 40.6 µM) | > 256 µg/mL | > 256 µg/mL | N/N=C/c1ccc2cccc(NS(=O)(=O)c3ccc(C(F)(F)F)cc3)c2n1 [ZDR127, (E)-N-(2-(Hydrazineylidenemethyl)quinolin-8-yl)-4-(trifluoromethyl)benzenesulfonamide] | > 256 µg/mL | > 256 µg/mL | > 256 µg/mL | > 256 µg/mL | > 256 µg/mL | 2 µg/mL (≈ 5.07 µM)
32 µg/mL (≈ 64.1 µM) | 2 µg/mL (≈ 4 µM) | 16 µg/mL (≈ 32 µM) | 16 µg/mL (≈ 32 µM) | > 256 µg/mL | > 256 µg/mL | O=C(N/N=C/c1ccc2cccc(NS(=O)(=O)c3ccc(C(F)(F)F)cc3)c2n1)c1cccnc1 [ZDR121, (E)-N-(2-((2-Nicotnoylhydrazineylidene)methyl)quinolin-8-yl)-4-(trifluoromethyl)benzenesulfonamide] | 64 µg/mL (≈ 128 µM) | 256 µg/mL (≈ 513 µM) | > 256 µg/mL | > 256 µg/mL | 256 µg/mL (≈ 513 µM) | 32 µg/mL (≈ 64.1 µM)
> 256 µg/mL | 0.125 µg/mL (≈ 0.257 µM) | 64 µg/mL (≈ 132 µM) | 8 µg/mL (≈ 16.4 µM) | 128 µg/mL (≈ 263 µM) | > 256 µg/mL | O=S(=O)(Nc1cccc2ccc(CNCCc3ccccn3)nc12)c1ccc(C(F)(F)F)cc1 [ZDR095, N-(2-(((2-(Pyridin-2-yl)ethyl)amino)methyl)quinolin-8-yl)-4-(trifluoromethyl)benzenesulfonamide] | > 128 µg/mL | > 256 µg/mL | 128 µg/mL (≈ 263 µM) | 256 µg/mL (≈ 526 µM) | > 256 µg/mL | 1 µg/mL (≈ 2.06 µM)
32 µg/mL (≈ 73.3 µM) | 0.5 µg/mL (≈ 1.15 µM) | 16 µg/mL (≈ 36.7 µM) | 16 µg/mL (≈ 36.7 µM) | > 256 µg/mL | > 256 µg/mL | CC(=O)N/N=C/c1ccc2cccc(NS(=O)(=O)c3ccc(C(F)(F)F)cc3)c2n1 [ZDR120, (E/Z)—N-(2-((2-Acetylhydrazineylidene)methyl)quinolin-8-yl)-4-(trifluoromethyl)benzenesulfonamide] | > 256 µg/mL | > 256 µg/mL | > 256 µg/mL | > 256 µg/mL | > 256 µg/mL | 1 µg/mL (≈ 2.29 µM)

From patent publication US11691949B2, “Quinoline sulfonamide compounds and their use as antibacterial agents” (OTAGO INNOVATION LIMITED, priority 2017, dated 2023)
